Series [1] in a line: logD7.4 determination of radiotracers (PBS/octan-1-ol). The series is classed as physicochemical. The following applies: octan-1-ol/PBS; PBS pH 7.4 / octan-1-ol, radiotracer. The method, then:
The logD 7.4 values of both radiotracers were determined using a previously described method based on their distribution between phosphate‐buffered saline (PBS) and octan‐1‐ol.
Triazole radiotracers (~400 kBq) in PBS buffer (10 µL, pH 7.4) were added to PBS buffer (590 µL, pH 7.4) and octan-1-ol (600 µL). The two-layer mixture was shaken for 3 min on a vortex mixer at r.t. and centrifuged (200 g) for 5 min. The main part of the octanol layer (400 µL) was carefully collected and transferred to a new tube containing PBS buffer (400 µL, pH 7.4). The two-layer mixture was shaken again for 10 min and centrifuged for 5 min (200 g). Three samples were prepared, and two aliquots (á 100 µL) of both layers were measured in a gamma-counter 2480 Wizard2 (Perkin-Elmer, Waltham, USA). The partition coefficient was determined by dividing cpm (octanol) by cpm (PBS) and indicated as logD7.4 (exp.).

Series [2] concerns the target Human serum albumin (HSA) (Homo sapiens, UniProt P02768). Nature of the series: Plasma protein binding (human serum albumin binding). It is filed as in vitro ADME. The following applies: human serum albumin (HSA), read-out: Plasma protein binding (PPB) (converted). The method, then: Human serum albumin (HSA) binding.
Plasma protein binding was determined following previously published procedure.^[38^]

The target in series [3] is T1, Soluble recombinant human CD73 (Homo sapiens, UniProt P21589).
T1 sequence (P21589 27-549 limits assumed): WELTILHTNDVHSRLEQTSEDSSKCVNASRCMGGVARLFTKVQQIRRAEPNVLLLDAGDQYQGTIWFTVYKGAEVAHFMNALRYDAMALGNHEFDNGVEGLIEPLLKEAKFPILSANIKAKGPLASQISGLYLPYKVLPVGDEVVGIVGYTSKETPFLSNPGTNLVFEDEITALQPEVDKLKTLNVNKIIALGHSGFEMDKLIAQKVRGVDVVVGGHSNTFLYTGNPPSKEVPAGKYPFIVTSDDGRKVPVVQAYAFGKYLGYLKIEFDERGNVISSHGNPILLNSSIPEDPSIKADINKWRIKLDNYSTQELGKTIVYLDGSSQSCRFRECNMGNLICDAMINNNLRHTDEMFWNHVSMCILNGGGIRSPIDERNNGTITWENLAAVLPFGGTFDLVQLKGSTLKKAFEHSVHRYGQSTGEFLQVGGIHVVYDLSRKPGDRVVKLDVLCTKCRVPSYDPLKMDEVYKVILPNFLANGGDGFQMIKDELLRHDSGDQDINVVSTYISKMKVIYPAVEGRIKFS
Nature of the series: CD73 enzyme inhibition assay, soluble recombinant human CD73. The series is classed as biochemical. The following applies: soluble recombinant human CD73, Km 17 µM, substrate AMP (5 µM). Here is the method:
Both compounds were evaluated for metabolic stability in mouse liver microsomes (MLM) and plasma protein binding (PPB) (Table 1).
The CD73 enzyme inhibition assay of recombinant soluble CD73, membrane-bound human CD73, soluble rat CD73 and mouse CD73 was performed as previously described.^[16,35^]

The target of series [4] is T2, CD73/AMPase activity in human breast tumor tissues (Homo sapiens, UniProt P21589).
T2 construct: cryosections of breast tumor samples as well as sentinel lymph node samples were investigated; from tissue; host or cells: primary breast tumors and sentinel lymph nodes of two patients, 6 µm cryosections
T2 sequence (P21589 27-574): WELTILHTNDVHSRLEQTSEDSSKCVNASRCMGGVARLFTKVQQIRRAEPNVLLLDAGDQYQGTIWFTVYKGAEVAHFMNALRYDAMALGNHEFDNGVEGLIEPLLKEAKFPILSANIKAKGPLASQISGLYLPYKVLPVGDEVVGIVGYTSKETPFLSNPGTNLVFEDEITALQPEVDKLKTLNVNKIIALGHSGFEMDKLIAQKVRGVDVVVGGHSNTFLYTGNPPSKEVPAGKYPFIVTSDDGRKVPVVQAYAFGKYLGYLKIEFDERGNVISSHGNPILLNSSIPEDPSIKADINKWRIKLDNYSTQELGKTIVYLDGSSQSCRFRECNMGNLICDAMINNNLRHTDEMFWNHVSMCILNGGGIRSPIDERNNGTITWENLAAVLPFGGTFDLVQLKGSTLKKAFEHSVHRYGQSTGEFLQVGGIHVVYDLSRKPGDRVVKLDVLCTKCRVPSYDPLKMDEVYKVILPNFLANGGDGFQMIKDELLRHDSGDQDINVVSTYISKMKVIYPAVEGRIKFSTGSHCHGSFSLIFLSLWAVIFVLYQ
Kind of series: In situ enzyme histochemistry of AMPase activity in breast tumor cryosections. The series is classed as biochemical. The following applies: 10–50 nM inhibitor, 400 µM AMP, tissue cryosections. Here is the method: Subsequent analysis of CD73‐mediated AMPase activities was performed by incubating tissue cryosections with AMP and CD73 inhibitors at different concentrations. Figure 2 depicts representative images of AMP‐specific staining in breast tumors from patient X (panel A) and patient Y (panel B), determined in the absence (control) and in the presence of 10 nM of the potent CD73 inhibitor 1.
FIGURE 3 Effects of CD73 inhibitors on AMPase activity in human breast tumor tissues. The effects of CD73 inhibitors on AMPase activity was determined in situ by incubating primary breast tumor samples from patient X (A) and patient Y (B) with 400 µM AMP and 1.5 mM Pb(NO3)2 in the absence (control) and the presence of the indicated concentrations of CD73 inhibitor. (C). Mean pixel intensities of brown staining due to the hydrolysis of AMP leading to Pb3(PO4)2 precipitation were quantified in the selected regions and expressed as arbitrary units (AU) (mean ± SEM; n = 2). Scale bars: 2 mm (A, B), and 500 µm (A, right insets).
For the localization of AMPase activities in human tumors, the lead nitrate-based enzyme histochemistry was employed. […] AMPase activity was determined by measuring AMP-specific brown staining intensities from the images using QuPath v.0.3.0 software. […] The average DAB intensity levels were measured as described earlier.^[39^] […]

Human serum albumin (HSA), sequence (P02768 25-609): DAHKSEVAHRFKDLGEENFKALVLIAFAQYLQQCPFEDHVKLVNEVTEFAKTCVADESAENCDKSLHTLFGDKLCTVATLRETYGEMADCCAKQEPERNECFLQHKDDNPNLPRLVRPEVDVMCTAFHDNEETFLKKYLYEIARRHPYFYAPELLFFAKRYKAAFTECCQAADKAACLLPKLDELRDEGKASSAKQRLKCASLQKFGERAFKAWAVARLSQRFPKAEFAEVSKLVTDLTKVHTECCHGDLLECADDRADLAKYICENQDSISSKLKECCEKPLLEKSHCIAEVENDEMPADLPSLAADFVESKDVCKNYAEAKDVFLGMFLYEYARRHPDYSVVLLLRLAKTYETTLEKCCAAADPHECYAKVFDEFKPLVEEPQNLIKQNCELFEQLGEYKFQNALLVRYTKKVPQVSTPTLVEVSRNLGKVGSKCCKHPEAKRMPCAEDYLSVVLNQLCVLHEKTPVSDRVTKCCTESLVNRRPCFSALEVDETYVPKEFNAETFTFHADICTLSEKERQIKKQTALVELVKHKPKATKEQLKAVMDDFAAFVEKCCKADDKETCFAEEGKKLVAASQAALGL

`Cn1c(=O)n([C@@H]2O[C@H](COP(=O)(O)CP(=O)(O)O)[C@@H](O)[C@H]2O)cc/c1=N/OCc1ccc(-c2cn(CCF)nn2)cc1` [compound 2, [((2R,3S,4R,5R)-5-{4-[({4-[1-(2-Fluoroethyl)-1H-1,2,3-triazol-4-yl]benzyl}oxy)-imino]-3-methyl-2-oxo-3,4-dihydropyrimidin-1(2H)-yl}-3,4-dihydroxytetrahydro-furan-2-yl)methoxy]-(phosphonomethyl)phosphonic acid] gave a logD in series [1] of 0.74 ± 0.3. Besides, in series [2], the fraction unbound was 0.34. Moreover, the Ki in series [3] was determined as 664 pM. The “Reduction of CD73/AMPase activity in the breast TME” value in series [4] is 60%–70.

The record behind these values is PMC13077603, “Fluorine‐18‐Labeled Nucleotide Analogs Targeting Ecto‐5'‐Nucleotidase (CD73) for Positron Emission Tomography Imaging of Solid Tumors” (Angewandte Chemie (International Ed. in English), 2026).
